Measurements: PubChem BioAssay AID1033 (Sanford-Burnham Center for Chemical Genomics, 2008)
Active and inactive are the calls of the source. The rule behind the calls is not given here.

Target: Chaperone protein DnaK (Escherichia coli (strain K12)) (UniProt P0A6Y8)
Experiment: binders of DnaK substrate-binding domain, biophysical, NMR, chaperone (AID 1033)
Conditions: Purified DnaK SBD, NMR ligand binding

Chain of Chaperone protein DnaK (Escherichia coli (strain K12)) (P0A6Y8 whole entry, looked up, the tested form may be a part): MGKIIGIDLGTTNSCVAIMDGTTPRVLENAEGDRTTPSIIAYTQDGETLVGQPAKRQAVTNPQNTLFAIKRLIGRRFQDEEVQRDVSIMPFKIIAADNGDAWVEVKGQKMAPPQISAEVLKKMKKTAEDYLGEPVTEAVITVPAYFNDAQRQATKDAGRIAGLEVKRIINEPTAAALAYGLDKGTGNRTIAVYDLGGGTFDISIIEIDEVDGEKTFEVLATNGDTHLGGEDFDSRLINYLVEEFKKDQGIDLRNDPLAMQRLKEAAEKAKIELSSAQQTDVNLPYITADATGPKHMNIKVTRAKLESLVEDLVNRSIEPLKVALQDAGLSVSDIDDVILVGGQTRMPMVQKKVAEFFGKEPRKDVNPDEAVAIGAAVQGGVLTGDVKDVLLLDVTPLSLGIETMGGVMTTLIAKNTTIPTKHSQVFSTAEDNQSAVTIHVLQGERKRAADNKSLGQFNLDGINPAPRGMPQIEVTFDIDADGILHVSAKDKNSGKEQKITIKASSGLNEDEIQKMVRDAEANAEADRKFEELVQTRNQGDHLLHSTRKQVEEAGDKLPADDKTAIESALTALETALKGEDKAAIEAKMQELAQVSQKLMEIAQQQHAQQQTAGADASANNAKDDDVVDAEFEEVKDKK

Row | SMILES | Kd
1 | O=C1NC(=O)/C(=C/c2ccc(O)cc2)N1 | > 4 mM (inactive)
2 | Cn1c(=O)c2cn3ncccc3c2n(C)c1=O | > 4 mM (inactive)
3 | CCOC(=O)CNC(=O)CSc1nnc(C)c(=O)[nH]1 | > 4 mM (inactive)
4 | Cc1ccc(C)n1CCN1CCNCC1 | > 4 mM (inactive)
5 | Cc1nc(-c2ccc(C(=O)N3CCOCC3)cc2)cs1 | > 4 mM (inactive)
6 | O=C(Oc1ccc2c(c1)CCC2)N1CCOCC1 | > 4 mM (inactive)
7 | CSc1nc(-c2ccco2)nn1S(C)(=O)=O | > 4 mM (inactive)
8 | CC1CC2(NC(=O)NC2=O)C(C)CN1C (stereo not drawn) | > 4 mM (inactive)
9 | O=C1C2C3CCC(O3)C2C(=O)N1c1ccccc1 (stereo not drawn) | > 4 mM (inactive)
10 | COc1cc(C(=O)O[C@H]2CC[C@@]3(C)[C@@H]4CC[C@H]5[C@]6(O)C[C@H](O)[C@@]7(O)[C@@H](CN8C[C@@H](C)CC[C@H]8[C@@]7(C)O)[C@]6(O)C[C@@]53OC24O)cc(OC)c1OC | > 4 mM (inactive)
11 | NS(=O)(=O)c1ccc(NC(=O)c2cccs2)cc1 | > 4 mM (inactive)
12 | OCC1Cc2ccccc2N1 (stereo not drawn) | > 4 mM (inactive)
13 | Cc1ncc(C[n+]2csc3ccccc32)c(N)n1 | > 4 mM (inactive)
14 | Cc1nc(N)sc1C(=O)N/N=C/c1ccncc1 | > 4 mM (inactive)
15 | O=C(O)c1ccc(CSc2ncn[nH]2)cc1 | > 4 mM (inactive)
16 | O=C(Nc1cccc(O)c1)c1ccccc1 | > 4 mM (inactive)
17 | Cc1cc(C)nc(/N=C(/N)Nc2cccc(F)c2)n1 | > 4 mM (inactive)
18 | OCc1ncoc1-c1ccccc1 | > 4 mM (inactive)
19 | O=C(Nc1nnc(-c2ccncc2)o1)c1cccs1 | > 4 mM (inactive)
20 | CCOC(=O)c1c(C)nc2ncccn12 | > 4 mM (inactive)
21 | O=C(O)c1ccc(NCc2cccnc2)cc1 | > 4 mM (inactive)
22 | c1cc(C(N2CCOCC2)N2CCOCC2)ccn1 | > 4 mM (inactive)
23 | Cn1cnc2c1c(=O)[nH]c(=O)n2C | > 4 mM (inactive)
24 | NC(=O)CN1CCCCCC1=O | > 4 mM (inactive)
25 | c1ccc2c(c1)[nH]c1cnccc12 | > 4 mM (inactive)

Row | SMILES | Kd
26 | Cc1n[nH]c(=O)nc1N1CCN(c2ccccc2)CC1 | > 4 mM (inactive)
27 | C=C1CSc2nc(=O)c3c(C)c(C)sc3n21 | > 4 mM (inactive)
28 | COc1cc(C(=S)N2CCCC2)cc(Cl)c1O | > 4 mM (inactive)
29 | NCc1csc(-c2ccccc2)n1 | > 4 mM (inactive)
30 | Nc1cccc(-c2cnco2)c1 | > 4 mM (inactive)
31 | COc1ccc(-c2cc3nc4n(c(=O)c3s2)CCC4)cc1 | > 4 mM (inactive)
32 | CC(C)C(C)/C=C/C(C)[C@H]1CCC2C3=CCC4CC(=O)CC[C@]4(C)C3CC[C@@]21C (stereo partly drawn) | > 4 mM (inactive)
33 | Nc1cc(C(=O)N2CCCC2)cc(C(=O)N2CCCC2)c1 | > 4 mM (inactive)
34 | CCNC(=S)Nc1c(C)n(C)n(-c2ccccc2)c1=O | > 4 mM (inactive)
35 | C=CCn1c(-c2ccc(O)cc2)n[nH]c1=S | > 4 mM (inactive)
36 | O=C(O)c1cccc(-n2cccc2)c1 | > 4 mM (inactive)
37 | C=C1C2=CC(=O)O[C@@H](c3ccoc3)[C@]2(C)CCC1[C@@]1(C)C=CC(=O)C(C)(C)[C@@H]1CC(=O)OC (stereo partly drawn) | > 4 mM (inactive)
38 | COC(=O)c1scc(S(C)(=O)=O)c1-n1cccc1 | > 4 mM (inactive)
39 | CC(=O)O[C@@H]1c2c(ccc3ccc(=O)oc23)OC(C)(C)[C@@H]1OC(=O)CC(C)C | > 4 mM (inactive)
40 | Cc1nnsc1C(=O)Nc1ccccc1[N+](=O)[O-] | > 4 mM (inactive)
41 | CCOc1ccc(C(=O)c2ccc(OC)c(O)c2O)cc1 | > 4 mM (inactive)
42 | O=C1CSC2=NCCCN12 | > 4 mM (inactive)
43 | COc1cc(O)cc(/C=C/c2ccccc2)c1 | > 4 mM (inactive)
44 | CC(=O)Nc1cccc(NC(=O)c2cccnc2)c1 | > 4 mM (inactive)
45 | CC(=O)NC1=C(N(C)C)C(=O)c2ccccc2C1=O | > 4 mM (inactive)
46 | Cc1ccc(NC(=O)C(=O)Nc2ccccn2)cc1 | > 4 mM (inactive)
47 | COc1ccc(C(=O)NCC(=O)O)cc1 | > 4 mM (inactive)
48 | NC(=O)CNC(=O)c1ccccc1 | > 4 mM (inactive)
49 | Cc1cc2ncn(S(=O)(=O)N3CCOCC3)c2cc1C | > 4 mM (inactive)
50 | COc1ccc2c(c1)OC[C@@H](Cc1ccc(OC)c(OC)c1)[C@H]2O | > 4 mM (inactive)

Row | SMILES | Kd
51 | CC(NC(=O)c1ccco1)C1CCCO1 (stereo not drawn) | > 4 mM (inactive)
52 | O=C(Nc1ccc2c(c1)OCO2)c1cccc(F)c1 | > 4 mM (inactive)
53 | CCn1nccc1C(=O)Nc1ccc(Cl)cc1Cl | > 4 mM (inactive)
54 | O=C(C1CCCCC1)N1CCN(c2ccccc2F)CC1 | > 4 mM (inactive)
55 | Cc1cc(N2CCCC2=O)c(N)cc1N | > 4 mM (inactive)
56 | O=C(O)CN1CCNCC1 | > 4 mM (inactive)
57 | N#Cc1cccc(Cn2nnc(-c3ccccc3)n2)c1 | > 4 mM (inactive)
58 | NCCc1ccc(S(N)(=O)=O)cc1 | > 4 mM (inactive)
59 | C=CCc1ccc(OC(=O)c2ccccc2)c(OC)c1 | > 4 mM (inactive)
60 | OCc1snnc1-c1ccccc1 | > 4 mM (inactive)
61 | C(=N\c1nccs1)/c1cccnc1 | > 4 mM (inactive)
62 | Cc1ccccc1C(=O)Nc1cccc(N)c1 | > 4 mM (inactive)
63 | COc1ccc(NC(=O)/C=N/O)cc1 | > 4 mM (inactive)
64 | COc1cc2c(cc1OC)C(=O)OC2 | > 4 mM (inactive)
65 | Cn1cnc2nc3n(c2c1=O)CCC3 | > 4 mM (inactive)
66 | O=C(O)CCCCC1SCC2NC(=O)NC21 (stereo not drawn) | > 4 mM (inactive)
67 | Nc1nnc(SCc2ccc(F)cc2Cl)s1 | > 4 mM (inactive)
68 | O=c1[nH]c(=S)c2c(n1-c1ccccc1)CCC2 | > 4 mM (inactive)
69 | N#Cc1cc2ccccc2nc1N | > 4 mM (inactive)
70 | COC(=O)CSc1n[nH]c(N)n1 | > 4 mM (inactive)
71 | CC(=O)N1N=C(N)SC1c1cccnc1 (stereo not drawn) | > 4 mM (inactive)
72 | Cc1cc(C(=O)NCc2cccs2)c(C)o1 | > 4 mM (inactive)
73 | Cc1c(C(=O)Nn2cnnc2)oc2ccccc12 | > 4 mM (inactive)
74 | Cn1nc(-c2cccs2)cc1N | > 4 mM (inactive)
75 | O=C(/C=C/c1ccccc1)NC1CCS(=O)(=O)C1 (stereo not drawn) | > 4 mM (inactive)

Row | SMILES | Kd
76 | CC1NC(C(=O)O)Cc2c1[nH]c1ccccc21 (stereo not drawn) | > 4 mM (inactive)
77 | Cc1cc(NC(=O)c2ocnc2C)no1 | > 4 mM (inactive)
78 | C/C=C/C(=O)Nc1ccc(NC(C)=O)cc1 | > 4 mM (inactive)
79 | Cc1nc(-c2cccc(C(=O)O)c2)cs1 | > 4 mM (inactive)
80 | Cc1occc1C(=O)N1CCC2(CC1)OCCO2 | > 4 mM (inactive)
81 | Nc1nc(N)nc(N2C(=O)c3ccccc3C2=O)n1 | > 4 mM (inactive)
82 | O=C(Nc1c[nH]c(=O)[nH]c1=O)c1cccs1 | > 4 mM (inactive)
83 | CN(C)CCCN1CNC(=S)NC1 | > 4 mM (inactive)
84 | O=C(O)c1snnc1-c1ccccc1 | > 4 mM (inactive)
85 | CC(C)(O)[C@@H]1Cc2cc3ccc(=O)oc3cc2O1 | > 4 mM (inactive)
86 | COC(=O)c1ccc2nsnc2c1 | > 4 mM (inactive)
87 | COC(=O)c1noc(-c2ccc(OC)cc2)n1 | > 4 mM (inactive)
88 | COC(=O)c1ccc2ncccc2c1 | > 4 mM (inactive)
89 | Cn1c(CN)nc2ccccc21 | > 4 mM (inactive)
90 | CC1=C2[C@H]3OC(=O)[C@@H](C)[C@@H]3CC[C@@]2(C)C=CC1=O | > 4 mM (inactive)
91 | O=C1c2ccccc2-c2ncnc3cccc1c23 | > 4 mM (inactive)
92 | CSc1nnc(CN2CCSCC2)n1C | > 4 mM (inactive)
93 | O=C1CC(C(=O)O)c2ccccc21 (stereo not drawn) | > 4 mM (inactive)
94 | COc1cc(OC)c2c(c1)O[C@H](c1ccc(OC)c(OC)c1)[C@@H](O)C2 | > 4 mM (inactive)
95 | O=c1oc2c(O)c(O)cc3c(=O)oc4c(O)c(O)cc1c4c23 | > 4 mM (inactive)
96 | COc1ccc(N2CC(=O)NC2=O)cc1 | > 4 mM (inactive)
97 | OC[C@H]1O[C@@H](n2cnc3c(NCc4ccco4)ncnc32)[C@H](O)[C@@H]1O | > 4 mM (inactive)
98 | Cc1c(N=Cc2ccco2)c(=O)n(-c2ccccc2)n1C | > 4 mM (inactive)
99 | NCc1cn2ccccc2n1 | > 4 mM (inactive)
100 | O=S(=O)(CCN1CCCC1)c1ccccc1 | > 4 mM (inactive)

Row | SMILES | Kd
101 | COc1cc(OC)c(-c2c(OC)cc(OC)cc2OC)c(OC)c1 | > 4 mM (inactive)
102 | Cc1ccc(SCCN2C(=O)NC(C)(C)C2=O)cc1 | > 4 mM (inactive)
103 | Cc1ccc(NC(=O)CN2C(=O)CSC2=O)cc1 | > 4 mM (inactive)
104 | O=C1CSC(=Nc2ccc(C(=O)O)cc2)N1 | > 4 mM (inactive)
105 | Cn1c(=O)n(C)c2cc(C(N)=O)ccc21 | > 4 mM (inactive)
106 | CC(=O)Nc1ccc(S(=O)(=O)N2CCN=C2C)cc1 | > 4 mM (inactive)
107 | O=C1C=CC2=C3c4cc(O)c(O)cc4C[C@@]3(O)COC2=C1 | > 4 mM (inactive)
108 | COc1ccc(C(=O)/C=C2\NC(=S)NC2=O)cc1 | > 4 mM (inactive)
109 | O=c1c(-c2cc(O)c(O)c(O)c2)coc2cc(O)c(O)c(O)c12 | > 4 mM (inactive)
110 | COc1ccc2[nH]cc(CCN(C)C)c2c1 | > 4 mM (inactive)
111 | O=C(O)c1ccc(-c2cccs2)s1 | > 4 mM (inactive)
112 | Cc1nc2cc(NC(=O)Nc3nccs3)ccc2n1C | > 4 mM (inactive)
113 | CCn1c(=O)cc(N2CCC3(CC2)OCCO3)[nH]c1=O | > 4 mM (inactive)
114 | CC(=O)c1cccc(NS(=O)(=O)N(C)C)c1 | > 4 mM (inactive)
115 | S=C(Nc1ccccc1)Nc1nncs1 | > 4 mM (inactive)
116 | O=C(O)c1scc2c1CCCC2 | > 4 mM (inactive)
117 | CCn1cnc2sc(C(=O)O)c(C)c2c1=O | > 4 mM (inactive)
118 | Cc1cc(C(=O)Nn2cnnc2)cs1 | > 4 mM (inactive)
119 | Cc1cc(NC(=O)CSc2ccnc(=O)[nH]2)no1 | > 4 mM (inactive)
120 | c1ccc(-n2nnnc2-n2cnc3ccccc32)cc1 | > 4 mM (inactive)
121 | O=c1c2ccccc2nc2n1CCS2 | > 4 mM (inactive)
122 | Nc1ccc(S(=O)(=O)Nc2nccs2)cc1 | > 4 mM (inactive)
123 | NCc1csc(-c2cccs2)n1 | > 4 mM (inactive)
